Values of other authors in patent publication US6150391A, “Diazabicyclo-octane derivatives as 5-HT receptor ligands” (Merck Sharp & Dohme Ltd., priority 1996, dated 2000).

Columns and labels:
[1] = system: human 5-HT1D.sbsb.α and 5-HT1D.sbsb.β receptor subtypes; conditions: cf WO-A-91/17174, Table 1
[2] = therapeutic doses

- discrimination between the human 5-HT1D.sbsb.α and 5-HT1D.sbsb.β receptor subtypes [1]: barely discriminates
Compound: CNS(=O)(=O)Cc1ccc2[nH]cc(CCN(C)C)c2c1 [sumatriptan]
- adverse events on administration to humans [2]: certain adverse cardiovascular events
